This passage reports Ki results from PMC12786355 (Biochimica et biophysica acta. Proteins and proteomics, 2024).

Assay [1] has as its target T1, MCR-C (C-terminal domain of malonyl-CoA reductase) (Chloroflexus aurantiacus, UniProt A9WIU3). The assay is described as follows: NADPH absorbance at […] nm, product inhibition. In kind it is biochemical.
Assay [2] addresses T1, MCR-C (C-terminal domain of malonyl-CoA reductase). Briefly: NADPH absorbance at […] nm, dead-end inhibition. The format is biochemical.

As to `NC(=O)c1ccc[n+]([C@@H]2O[C@H](COP(=O)(O)OP(=O)(O)OC[C@H]3O[C@@H](n4cnc5c(N)ncnc54)[C@H](OP(=O)(O)O)[C@@H]3O)[C@@H](O)[C@H]2O)c1` [NADP^+], affinity in assay [1] was put at a Ki of 104 ± 15 µM.

With `CC(C)(COP(=O)(O)OP(=O)(O)OC[C@H]1O[C@@H](n2cnc3c(N)ncnc32)[C@H](O)[C@@H]1OP(=O)(O)O)[C@@H](O)C(=O)NCCC(=O)NCCS` [CoA], in assay [1], the affinity, expressed as Ki, was 238 ± 14 µM. Take `O=CC(=O)O` [glyoxylic acid]: the Ki (as a rule, a dissociation constant, usually derived from enzyme kinetics or from competition with a known ligand) in assay [2] is 6 ± 0.8 µM.
